Target: BChE (Homo sapiens, UniProt P06276)
Conditions: BChE versus AChE inhibition, colorimetric kits

Sequence of BChE (P06276 29-602, species assumed): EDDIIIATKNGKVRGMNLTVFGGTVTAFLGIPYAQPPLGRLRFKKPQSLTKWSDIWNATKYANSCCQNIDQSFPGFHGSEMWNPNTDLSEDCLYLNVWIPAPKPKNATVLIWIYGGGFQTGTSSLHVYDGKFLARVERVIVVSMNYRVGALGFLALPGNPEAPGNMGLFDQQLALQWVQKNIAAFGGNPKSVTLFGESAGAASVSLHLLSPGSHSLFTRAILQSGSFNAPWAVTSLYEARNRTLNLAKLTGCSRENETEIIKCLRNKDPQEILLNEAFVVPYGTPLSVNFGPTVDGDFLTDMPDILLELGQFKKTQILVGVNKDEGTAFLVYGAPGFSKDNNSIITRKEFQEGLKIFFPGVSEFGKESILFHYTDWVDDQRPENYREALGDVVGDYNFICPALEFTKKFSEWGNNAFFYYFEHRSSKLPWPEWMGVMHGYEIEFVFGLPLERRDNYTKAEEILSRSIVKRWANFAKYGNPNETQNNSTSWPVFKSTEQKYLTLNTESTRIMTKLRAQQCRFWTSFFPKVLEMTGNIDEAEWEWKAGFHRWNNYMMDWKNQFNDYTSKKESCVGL

SMILES: OC(CN1CCCCC1)c1c[nH]c2ccccc12 (stereo not shown) [CPI7075, 1-(1H-indol-3-yl)-2-(piperidin-1-yl)ethanol]
- BChE selectivity in vitro: selective BChE inhibitors

— paper PMC11331448 (Journal of chemical information and modeling, 2024)
